Measured values from ChEMBL document CHEMBL3351874, “Rational design of inhibitors of the bacterial cell wall synthetic enzyme GlmU using virtual screening and lead-hopping” (Bioorg Med Chem, 2014).

Experiments:
[1] = target: Tyrosine-protein kinase JAK1 (Homo sapiens, UniProt P23458); assay: Inhibition of human JAK1 incubated for 20 mins prior to MgCl2 addition measured after 90 mins by mobility shift assay
[2] = Inhibition of Haemophilus influenzae ATCC 51907 GlmU expressed in Escherichia coli BL21(DE3) incubated for 15 mins prior to MgCl2 addition measured after 30 mins by malachite green staining-based assay
[3] = target: Cyclin-dependent kinase 1 (Homo sapiens, UniProt P06493); assay: Inhibition of human CDK1 incubated for 20 mins prior to MgCl2 addition measured after 90 mins by mobility shift assay
[4] = target: T1, Interleukin-1 receptor-associated kinase 4 (Homo sapiens, UniProt Q9NWZ3); assay: Inhibition of human IRAK4 incubated for 20 mins prior to MgCl2 addition measured after 90 mins by mobility shift assay
T1 sequence (Q9NWZ3 whole entry): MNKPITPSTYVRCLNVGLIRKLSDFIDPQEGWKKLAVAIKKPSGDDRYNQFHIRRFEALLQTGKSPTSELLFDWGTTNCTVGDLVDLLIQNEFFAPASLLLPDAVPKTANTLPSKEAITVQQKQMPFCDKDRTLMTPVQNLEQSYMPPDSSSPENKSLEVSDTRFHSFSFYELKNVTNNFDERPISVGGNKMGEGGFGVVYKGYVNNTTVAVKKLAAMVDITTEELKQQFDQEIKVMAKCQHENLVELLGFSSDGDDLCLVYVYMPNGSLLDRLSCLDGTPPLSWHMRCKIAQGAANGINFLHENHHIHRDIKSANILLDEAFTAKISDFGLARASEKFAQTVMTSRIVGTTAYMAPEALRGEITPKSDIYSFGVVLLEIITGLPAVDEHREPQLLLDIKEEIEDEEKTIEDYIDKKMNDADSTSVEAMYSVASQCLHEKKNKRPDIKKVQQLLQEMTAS

[5] = target: T2, Tyrosine-protein kinase JAK3 (Homo sapiens, UniProt P52333); assay: Inhibition of human JAK3 incubated for 20 mins prior to MgCl2 addition measured after 90 mins by mobility shift assay
T2 sequence (P52333 whole entry): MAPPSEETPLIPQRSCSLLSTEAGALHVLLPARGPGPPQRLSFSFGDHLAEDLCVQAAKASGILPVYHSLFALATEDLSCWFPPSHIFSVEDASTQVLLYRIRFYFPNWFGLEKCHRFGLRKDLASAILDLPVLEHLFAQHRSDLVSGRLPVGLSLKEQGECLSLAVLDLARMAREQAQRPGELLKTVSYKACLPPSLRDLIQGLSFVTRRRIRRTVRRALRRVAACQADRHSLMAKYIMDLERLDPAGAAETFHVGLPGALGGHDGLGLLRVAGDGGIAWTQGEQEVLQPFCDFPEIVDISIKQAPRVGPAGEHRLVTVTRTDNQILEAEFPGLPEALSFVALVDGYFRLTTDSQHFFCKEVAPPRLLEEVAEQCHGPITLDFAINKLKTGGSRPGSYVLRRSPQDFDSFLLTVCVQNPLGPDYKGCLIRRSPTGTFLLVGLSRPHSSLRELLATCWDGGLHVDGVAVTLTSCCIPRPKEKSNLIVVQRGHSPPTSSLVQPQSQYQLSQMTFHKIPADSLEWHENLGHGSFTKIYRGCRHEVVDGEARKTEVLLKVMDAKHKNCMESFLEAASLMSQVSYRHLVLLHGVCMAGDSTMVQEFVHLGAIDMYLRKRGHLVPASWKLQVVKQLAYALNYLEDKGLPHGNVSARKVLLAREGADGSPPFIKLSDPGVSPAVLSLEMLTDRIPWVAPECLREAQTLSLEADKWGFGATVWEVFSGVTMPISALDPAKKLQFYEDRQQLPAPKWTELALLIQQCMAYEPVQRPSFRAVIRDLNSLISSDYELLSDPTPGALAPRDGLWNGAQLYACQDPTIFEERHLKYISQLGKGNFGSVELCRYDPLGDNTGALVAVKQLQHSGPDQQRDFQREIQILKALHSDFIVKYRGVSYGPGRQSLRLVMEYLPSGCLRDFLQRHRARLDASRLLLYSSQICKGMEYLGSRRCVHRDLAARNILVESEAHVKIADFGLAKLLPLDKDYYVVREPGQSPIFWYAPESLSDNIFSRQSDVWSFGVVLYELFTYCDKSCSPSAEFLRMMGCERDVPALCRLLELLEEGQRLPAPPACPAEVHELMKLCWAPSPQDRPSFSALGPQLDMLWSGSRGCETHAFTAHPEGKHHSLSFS

[6] = target: Bifunctional protein GlmU (Escherichia coli, UniProt C3SLB7); assay: Inhibition of Escherichia coli ATCC 27325 GlmU expressed in Escherichia coli HMS174(DE3) incubated for 15 mins prior to MgCl2 addition measured after 30 mins by malachite green staining-based assay
[7] = target: Cyclin-dependent kinase 2 (Homo sapiens, UniProt P24941); assay: Inhibition of human CDK2 incubated for 20 mins prior to MgCl2 addition measured after 90 mins by mobility shift assay
[8] = target: Cyclin-dependent kinase 9 (Homo sapiens, UniProt P50750); assay: Inhibition of human CDK9 incubated for 20 mins prior to MgCl2 addition measured after 90 mins by mobility shift assay
[9] = target: Aurora kinase B (Homo sapiens, UniProt Q96GD4); assay: Inhibition of human AURKB incubated for 20 mins prior to MgCl2 addition measured after 90 mins by mobility shift assay
[10] = target: Interleukin-1 receptor-associated kinase 1 (Homo sapiens, UniProt P51617); assay: Inhibition of human IRAK1 incubated for 20 mins prior to MgCl2 addition measured after 90 mins by mobility shift assay
[11] = Serum protein binding in human at 10 uM after 30 mins by ultrafiltration method; format: ADME; conditions: read-out: PB (converted)
[12] = target: Tyrosine-protein kinase JAK2 (Homo sapiens, UniProt O60674); assay: Inhibition of human JAK2 incubated for 20 mins prior to MgCl2 addition measured after 90 mins by mobility shift assay
Tyrosine-protein kinase JAK2, sequence (O60674 whole entry): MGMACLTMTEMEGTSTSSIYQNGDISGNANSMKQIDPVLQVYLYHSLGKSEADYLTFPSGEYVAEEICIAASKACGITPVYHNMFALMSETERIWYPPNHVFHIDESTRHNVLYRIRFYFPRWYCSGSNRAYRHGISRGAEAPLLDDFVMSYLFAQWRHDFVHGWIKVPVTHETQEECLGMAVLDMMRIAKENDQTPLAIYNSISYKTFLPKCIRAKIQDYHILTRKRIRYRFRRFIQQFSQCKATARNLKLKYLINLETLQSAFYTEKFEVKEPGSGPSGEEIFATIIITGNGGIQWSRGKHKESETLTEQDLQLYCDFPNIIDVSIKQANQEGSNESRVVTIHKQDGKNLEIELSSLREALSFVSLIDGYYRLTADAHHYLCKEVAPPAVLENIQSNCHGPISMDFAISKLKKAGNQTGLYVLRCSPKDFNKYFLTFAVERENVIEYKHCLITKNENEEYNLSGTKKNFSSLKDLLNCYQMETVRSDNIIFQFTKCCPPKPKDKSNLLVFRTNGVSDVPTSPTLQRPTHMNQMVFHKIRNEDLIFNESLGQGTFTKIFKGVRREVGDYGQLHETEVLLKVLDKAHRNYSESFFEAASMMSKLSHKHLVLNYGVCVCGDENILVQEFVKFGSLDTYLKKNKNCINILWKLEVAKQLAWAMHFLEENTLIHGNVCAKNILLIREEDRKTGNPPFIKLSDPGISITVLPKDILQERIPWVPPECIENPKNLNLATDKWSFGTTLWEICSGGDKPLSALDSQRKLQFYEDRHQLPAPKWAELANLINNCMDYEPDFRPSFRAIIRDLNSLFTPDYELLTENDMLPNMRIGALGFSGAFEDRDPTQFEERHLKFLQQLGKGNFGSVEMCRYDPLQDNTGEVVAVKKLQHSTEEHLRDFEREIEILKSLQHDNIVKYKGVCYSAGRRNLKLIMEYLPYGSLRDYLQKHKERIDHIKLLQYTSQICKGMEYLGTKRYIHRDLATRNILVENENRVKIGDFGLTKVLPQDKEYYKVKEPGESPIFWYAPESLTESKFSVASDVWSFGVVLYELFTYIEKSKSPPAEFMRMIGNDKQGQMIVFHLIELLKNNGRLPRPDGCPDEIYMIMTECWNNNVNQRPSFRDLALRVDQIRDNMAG

Cyclin-dependent kinase 1, sequence (P06493 whole entry): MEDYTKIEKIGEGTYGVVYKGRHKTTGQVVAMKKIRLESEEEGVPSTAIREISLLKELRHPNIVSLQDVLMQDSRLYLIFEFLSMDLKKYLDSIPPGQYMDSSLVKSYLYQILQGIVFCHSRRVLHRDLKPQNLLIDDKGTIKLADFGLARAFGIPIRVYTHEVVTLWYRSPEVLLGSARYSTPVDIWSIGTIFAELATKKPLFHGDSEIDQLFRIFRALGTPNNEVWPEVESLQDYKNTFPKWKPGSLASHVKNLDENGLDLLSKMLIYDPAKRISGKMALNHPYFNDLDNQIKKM
Tyrosine-protein kinase JAK1, sequence (P23458 whole entry): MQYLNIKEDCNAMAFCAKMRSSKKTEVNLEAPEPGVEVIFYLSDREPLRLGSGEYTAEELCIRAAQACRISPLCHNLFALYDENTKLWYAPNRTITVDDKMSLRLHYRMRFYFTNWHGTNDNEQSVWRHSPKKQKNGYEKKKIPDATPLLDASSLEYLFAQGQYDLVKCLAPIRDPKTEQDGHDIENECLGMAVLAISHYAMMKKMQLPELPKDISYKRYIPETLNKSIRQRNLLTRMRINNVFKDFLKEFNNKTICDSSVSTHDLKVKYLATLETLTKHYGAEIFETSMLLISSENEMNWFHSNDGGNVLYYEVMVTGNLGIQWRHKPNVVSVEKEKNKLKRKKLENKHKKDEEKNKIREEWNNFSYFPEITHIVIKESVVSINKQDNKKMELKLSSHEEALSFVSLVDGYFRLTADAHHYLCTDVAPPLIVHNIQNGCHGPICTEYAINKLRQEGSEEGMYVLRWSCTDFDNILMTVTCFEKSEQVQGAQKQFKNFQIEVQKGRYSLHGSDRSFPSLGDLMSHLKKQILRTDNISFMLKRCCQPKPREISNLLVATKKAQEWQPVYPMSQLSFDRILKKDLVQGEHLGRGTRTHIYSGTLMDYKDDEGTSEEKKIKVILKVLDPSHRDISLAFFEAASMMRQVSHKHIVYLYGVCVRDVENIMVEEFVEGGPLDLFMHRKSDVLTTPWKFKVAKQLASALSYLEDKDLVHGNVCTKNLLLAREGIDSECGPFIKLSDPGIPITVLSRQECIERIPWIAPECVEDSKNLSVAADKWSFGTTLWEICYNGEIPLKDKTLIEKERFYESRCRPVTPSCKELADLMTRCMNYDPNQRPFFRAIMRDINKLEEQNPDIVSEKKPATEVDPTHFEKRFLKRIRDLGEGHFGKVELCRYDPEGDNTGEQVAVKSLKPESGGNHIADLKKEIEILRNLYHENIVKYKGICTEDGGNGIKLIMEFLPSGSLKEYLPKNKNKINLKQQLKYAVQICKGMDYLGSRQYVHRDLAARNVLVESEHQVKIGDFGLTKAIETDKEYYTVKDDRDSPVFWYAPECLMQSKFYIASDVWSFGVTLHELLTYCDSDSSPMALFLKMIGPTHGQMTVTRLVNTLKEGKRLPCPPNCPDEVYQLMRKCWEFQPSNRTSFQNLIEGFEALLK
Aurora kinase B, sequence (Q96GD4 whole entry): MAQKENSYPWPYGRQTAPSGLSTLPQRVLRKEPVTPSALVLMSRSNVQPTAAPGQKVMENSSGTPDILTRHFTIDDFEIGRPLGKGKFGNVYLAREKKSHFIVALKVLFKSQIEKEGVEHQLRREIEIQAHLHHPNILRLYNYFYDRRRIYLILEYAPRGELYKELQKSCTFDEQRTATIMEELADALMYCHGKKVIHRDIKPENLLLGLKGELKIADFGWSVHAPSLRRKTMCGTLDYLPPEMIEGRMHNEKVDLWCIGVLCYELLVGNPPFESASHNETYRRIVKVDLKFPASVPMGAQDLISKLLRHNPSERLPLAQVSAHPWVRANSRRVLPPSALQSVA
Cyclin-dependent kinase 9, sequence (P50750 whole entry): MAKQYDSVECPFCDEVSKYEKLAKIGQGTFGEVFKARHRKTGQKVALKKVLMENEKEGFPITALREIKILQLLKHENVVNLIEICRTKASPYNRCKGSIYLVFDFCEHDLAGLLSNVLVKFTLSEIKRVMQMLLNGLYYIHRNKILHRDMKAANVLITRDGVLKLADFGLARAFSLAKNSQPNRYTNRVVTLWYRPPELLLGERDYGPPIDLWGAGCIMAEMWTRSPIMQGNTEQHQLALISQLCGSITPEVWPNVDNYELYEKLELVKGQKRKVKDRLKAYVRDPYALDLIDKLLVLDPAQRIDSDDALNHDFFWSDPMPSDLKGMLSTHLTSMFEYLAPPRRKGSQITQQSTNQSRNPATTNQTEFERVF
Bifunctional protein GlmU, sequence (C3SLB7 whole entry): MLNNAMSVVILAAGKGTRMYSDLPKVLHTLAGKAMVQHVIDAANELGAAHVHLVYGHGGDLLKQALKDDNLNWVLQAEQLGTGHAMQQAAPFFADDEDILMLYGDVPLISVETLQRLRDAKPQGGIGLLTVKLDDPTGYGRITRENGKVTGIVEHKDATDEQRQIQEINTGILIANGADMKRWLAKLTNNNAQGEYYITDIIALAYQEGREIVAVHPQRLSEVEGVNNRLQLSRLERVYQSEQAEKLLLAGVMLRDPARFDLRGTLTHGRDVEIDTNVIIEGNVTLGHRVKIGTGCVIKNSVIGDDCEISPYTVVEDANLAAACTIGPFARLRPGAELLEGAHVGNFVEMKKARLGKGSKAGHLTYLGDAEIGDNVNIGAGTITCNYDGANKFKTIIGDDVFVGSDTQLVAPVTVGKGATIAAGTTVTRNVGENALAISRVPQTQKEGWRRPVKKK
Interleukin-1 receptor-associated kinase 1, sequence (P51617 whole entry): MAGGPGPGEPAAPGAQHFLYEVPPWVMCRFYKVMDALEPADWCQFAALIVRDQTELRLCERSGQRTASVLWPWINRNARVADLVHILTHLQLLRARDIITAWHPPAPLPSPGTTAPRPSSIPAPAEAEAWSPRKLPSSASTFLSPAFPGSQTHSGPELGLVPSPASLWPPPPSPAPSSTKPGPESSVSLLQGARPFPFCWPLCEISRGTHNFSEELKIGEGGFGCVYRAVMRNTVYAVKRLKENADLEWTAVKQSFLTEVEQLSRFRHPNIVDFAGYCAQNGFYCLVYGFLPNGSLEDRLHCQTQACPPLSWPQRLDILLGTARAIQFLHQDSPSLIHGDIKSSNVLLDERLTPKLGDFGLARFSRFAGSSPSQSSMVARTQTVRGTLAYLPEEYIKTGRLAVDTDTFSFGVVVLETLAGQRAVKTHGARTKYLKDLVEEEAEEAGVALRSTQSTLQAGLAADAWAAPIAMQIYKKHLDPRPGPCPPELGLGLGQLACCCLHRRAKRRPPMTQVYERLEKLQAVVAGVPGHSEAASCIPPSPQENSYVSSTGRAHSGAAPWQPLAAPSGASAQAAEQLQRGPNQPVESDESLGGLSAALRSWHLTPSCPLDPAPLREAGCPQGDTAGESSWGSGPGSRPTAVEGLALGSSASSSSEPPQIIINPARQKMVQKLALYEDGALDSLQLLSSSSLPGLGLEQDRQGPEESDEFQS

Row | Compound | IC50 [1] [µM] | IC50 [2] [µM] | IC50 [3] [µM] | IC50 [4] [µM] | IC50 [5] [µM] | IC50 [6] [µM] | IC50 [7] [µM] | IC50 [8] [µM] | IC50 [9] [µM] | IC50 [10] [µM] | fraction unbound at 0.5 h, 10 µM [11] | IC50 [12] [µM]
1 | COc1cc2c(Nc3ccc(NC(=O)c4ccccc4)cc3)nc(C)nc2cc1O | > 30 | 0.39 | > 30 | > 30 | > 30 | 2.2 | > 30 | > 30 | > 30 | > 30 | 0.097 | > 30
2 | COc1cc2c(Nc3ccc(NC(=O)c4ccccc4)cc3)ncnc2cc1OCC(=O)O | > 30 | 3.2 | > 30 | > 30 | > 30 | 6.7 | > 30 | > 30 | 0.689 | > 30 | < 0.01 | > 30
3 | COc1cc2c(Nc3ccc(NC(=O)c4ccccc4)cc3)nc(Cl)nc2cc1O |  | 0.65 |  |  |  | 0.37 |  |  |  |  | 0.021 | 
4 | O=c1[nH]cc(-c2cccc([N+](=O)[O-])c2)c(=O)[nH]1 |  | 1950 |  |  |  |  |  |  |  |  |  | 
5 | COc1cc2c(Nc3ccc(NC(=O)c4ccccc4)cc3)nc(Cc3ccccc3)nc2cc1O |  | 1.8 |  |  |  | 4.8 |  |  |  |  | < 0.01 | 
6 | O=c1[nH]cc(-c2cccc(Br)c2)c(=O)[nH]1 |  | 50 |  |  |  |  |  |  |  |  |  | 
7 | COc1cc2c(Nc3ccc(NC(=O)c4ccccc4)cc3)ncnc2cc1OCCO | > 30 | 19 | > 30 | 24.4 | > 30 | 35 | > 30 | > 30 | 0.0273 | > 30 |  | > 30
8 | COc1cc2c(Nc3ccc(NC(=O)c4ccccc4)cc3)nc(NCCc3ccccn3)nc2cc1O | > 30 | 0.38 | > 30 | 0.579 | > 30 | 0.65 | > 30 | > 30 | > 30 | > 30 | < 0.01 | > 30
9 | COc1cc2c(Nc3ccc(NC(=O)c4ccccc4)cc3)nc(NCCCn3ccnc3)nc2cc1O |  | 1.12 |  |  |  | 4.5 |  |  |  |  | 0.012 | 
10 | COc1cc2c(Nc3ccc(NC(=O)c4ccccc4)cc3)ncnc2cc1O | > 30 | 0.26 | > 30 | > 30 | > 30 | 1.3 | > 30 | > 30 | 0.275 | > 30 |  | > 30
11 | COc1cc2c(Nc3ccc(NC(=O)c4ccccc4)cc3)ncnc2cc1OCC(N)=O | > 30 | > 22 | > 30 | > 30 | > 30 | > 22 | > 30 | > 30 | 0.155 | > 30 |  | > 30

Next, values leading:

Row | IC50 [1] [µM] | IC50 [2] [µM] | IC50 [3] [µM] | IC50 [4] [µM] | IC50 [5] [µM] | IC50 [6] [µM] | IC50 [7] [µM] | IC50 [8] [µM] | IC50 [9] [µM] | IC50 [10] [µM] | fraction unbound at 0.5 h, 10 µM [11] | IC50 [12] [µM] | Compound
12 | > 30 | 6.1 | > 30 | > 30 | > 30 | 5.9 | > 30 | > 30 | > 30 | > 30 | 0.011 | > 30 | COc1cc(C(=O)Nc2ccc(NC(=O)c3ccccc3)cc2)c(N)cc1O
13 |  | 1.7 |  |  |  | > 22 |  |  |  |  | 0.016 |  | COc1cc(C(=O)Nc2ccc(NC(=O)c3ccccn3)cc2)cc(-c2nc(=O)o[nH]2)c1
14 |  | 0.55 |  |  |  | 21 |  |  |  |  | 0.032 |  | COc1cc(C(=O)Nc2ccc(NC(=O)c3ccccn3)cc2)cc(-c2nn[nH]n2)c1
15 | > 30 | 0.0017 | > 30 | > 30 | > 30 | 0.027 | > 30 | > 30 | > 30 | > 30 |  | > 30 | COc1cc(C(=O)Nc2ccc(NC(=O)c3ccccn3)cc2)cc(-c2c[nH]c(=O)[nH]c2=O)c1
16 |  | 0.02 |  |  |  | 0.26 |  |  |  |  | 0.019 |  | COc1cc(C(=O)Nc2ccc(NC(=O)c3ccccc3)cc2)cc(-c2c[nH]c(=O)[nH]c2=O)c1O
17 | > 30 | 0.05 | > 30 | > 30 | > 30 | 3.1 | > 30 | > 30 | 23.1 | > 30 | < 0.01 | > 30 | O=C(Nc1ccc(NC(=O)c2ccccn2)cc1)c1ccc(O)c([N+](=O)[O-])c1
18 |  | 1.5 |  |  |  | 2.7 |  |  |  |  | < 0.01 |  | COc1cc2c(Nc3ccc(NC(=O)c4ccccc4)cc3)nc(-c3ccccn3)nc2cc1O
19 | > 30 | 0.005 | > 30 | > 30 | > 30 | 0.35 | > 30 | > 30 | 7.51 | > 30 | 0.019 | > 30 | O=C(Nc1ccc(NC(=O)c2ccccn2)cc1)c1cccc(-c2c[nH]c(=O)[nH]c2=O)c1
20 | > 30 | 0.071 | > 30 | > 30 | > 30 | 1.7 | > 30 | > 30 | 14.3 | > 30 | 0.097 | > 30 | COc1cc(C(=O)Nc2ccc(NC(=O)c3ccccn3)cc2)cc(N2CCC(=O)NC2=O)c1
21 | > 30 | 23 | > 30 | > 30 | > 30 | > 67 | > 30 | > 30 | > 30 | > 30 |  | > 30 | COc1cc(C(=O)Nc2ccc(NC(=O)c3ccccc3)cc2)ccc1OCC(=O)O
22 | > 30 | 1.4 | > 30 | > 30 | > 30 | 18 | > 30 | > 30 | > 30 | > 30 | < 0.01 | > 30 | COc1cc(C(=O)Nc2ccc(NC(=O)c3ccccc3)cc2)ccc1O
23 |  | 0.98 |  |  |  | 4.2 |  |  |  |  | < 0.01 |  | COc1cc(C(=O)Nc2ccc(NC(=O)c3ccccn3)cc2)cc(-c2cnc(=O)[nH]c2)c1
24 |  | > 22 |  |  |  | > 22 |  |  |  |  |  |  | COc1cc(C(=O)Nc2ccc(NC(=O)c3ccccc3)cc2)ccc1OCC(N)=O
